Assay results: patent publication US5332739A, “Pyrimidinedione derivatives and antiarrhythmic agents containing same” (Mitsui Toatsu Chemicals, Incorporated, priority 1990, dated 1994)
Counter-ions that a name gives are not always drawn.

Experiments:
[1] = system: Purkinje fiber of the right ventricular free wall; assay: Influence on Myocardial Action Potential Duration Time (APD75); type: cell-based, hybrid adult dog; conditions: Canis lupus familiaris, 20 min, 20 minutes' incubation, 1 Hz, 37° C.; for percent prolongation of action potential duration (APD75) at 1 µg/mL: Dose 1.0 (μg, ml); for percent prolongation of action potential duration (APD75) at 3 µg/mL: Dose 3.0 (μg, ml); for percent prolongation of action potential duration (APD75) at 10 µg/mL: Dose 10.0 (μg, ml)
Experimental: To a hybrid adult dog, 30 mg/kg of pentobarbital was administered through a vein, and after being anesthetized, the heart was removed. Afterward, the right ventricular free wall of the heart was cut and taken out in a Tyrode solution.
The taken right ventricular free wall was fixed in an incubator at 37° C., and a nutritional solution (20 ml of the Tyrode solution) was refluxed.
In this isolated condition, myocardial action potential duration times (APD75) were measured before and after the administration of the respective compounds prepared in the above examples in Table A and d-sotalol as a control medicine, and APD75 (%) was calculated from the measured results in accordance with the formula: […]
A: APD75 before administration
B: APD75 after administration
Here, APD75 was measured as follows: A field stimulation of 1 Hz was given to the right ventricular free wall, and any variation of an action potential was depicted on an oscilloscope via a glass microelectrode (10 to 20 M.OMEGA.) thrust into a Purkinje fiber of the free wall and via an amplifier. Afterward, a waveform on the oscilloscope was analyzed by the use of a computer, and the time of from a point of the action potential generation to a point of 75% repolarization was measured. This measured time was regarded as the myocardial action potential duration time (APD75).
The compounds and d-sotalol shown in Table A were separately added to the refluxing nutritional solution (20 ml), and after 20 minutes' incubation, APD75 after the administration was calculated from the variation of the myocardial action potential duration time.
Incidentally, this test was carried out in accordance with a Sato et al's method [H. Sato, K. Hashimoto, Arzneimeittel Forschung, 34 (1), 3a, 376-380 (1984)].

[2] = system: ventricular muscle (right ventricle); assay: Influence on Ventricular Muscle Refractory Period (ERP); type: in vivo, mongrel adult dog; conditions: Canis lupus familiaris, iv, anesthetized dog, read-out: ERP (%; extensibility of refractory period); for change in vivo at 0.1 mg/kg: Dose 0.1 mg/kg i.v.; for change in vivo at 0.3 mg/kg: Dose 0.3 mg/kg i.v.; for change in vivo at 1 mg/kg: Dose 1.0 mg/kg i.v.; for change in vivo at 3 mg/kg: Dose 3.0 mg/kg i.v.
Experimental: Refractory periods were measured in the following manner before and after each of the compounds and d-sotalol shown an Table A was separately administered to a vein or a duodenum, and ERP (%; extensibility of refractory period) was calculated from the measured values in accordance with the following formula: […]
W: Refractory period after administration
Y: Refractory period before administration
To a mongrel adult dog, 30 mg/kg of pentobarbital was administered intravenously, and after being anesthetized, a pair of silver-silver chloride electrodes separated by 3 mm was sewn on an opened right ventricule, and electrical stimulation was given at an interval of 400 msec at a duration time of 4 msec under a current twice as much as the threshold. Afterward, a small amount of alcohol was injected into a sinus artery in order to extinguish a pacemaker activity, and the ventricular refractory period (ERP) was measured under ventricule pacing.
That is, 1 train comprised 10 stimulations, and an interval between two of the trains was usually 400 msec. At the time of the refractory period measurement, however, the above interval was shortened every 10 smec, and the interval between the trains at the time when reaction to the first stimulation of the train disappeared was regarded as the refractory period.
In this case, the electrical stimulation was fed in accordance with a program by a heart stimulation device (Diamedical Co., Ltd.; DHM-226-3).

Row | Structure (SMILES) | percent prolongation of action potential duration (APD75) at 1 µg/mL [1] | percent prolongation of action potential duration (APD75) at 3 µg/mL [1] | percent prolongation of action potential duration (APD75) at 10 µg/mL [1] | change in vivo at 0.1 mg/kg [2] | change in vivo at 0.3 mg/kg [2] | change in vivo at 1 mg/kg [2] | change in vivo at 3 mg/kg [2] | percent prolongation of action potential duration (APD75) at 0.3 µg/mL ([1]; Dose 0.3 (μg, ml))
1 | Cn1c(N2CCN(CCCOc3ccc(F)cc3)CC2)cc(=O)n(C)c1=O [Compound 1, 1,3-dimethyl-6-[4-(3-[4-fluorophenoxy]propyl)piperazin-1-yl]-2,4(1H,3H)-pyrimidinedione.hydrochloride] | 17% | 22% | 30% | 6% | 12% | 15.8% | 24.3% | 
2 | Cn1c(N2CCN(CCCOc3ccc(C(=O)c4ccccc4)cc3)CC2)cc(=O)n(C)c1=O [Compound 9] | 6% | 21% | 30% | 5.6% | 5.6% | 11.1% | 16.7% | 
3 | Cn1c(N2CCN(CCCOc3cccc(C#N)c3)CC2)cc(=O)n(C)c1=O [Compound 12] | 4% | 11% | 28% | 0% | 2.1% | 4.3% | 17% | 
4 | Cn1c(N2CCN(CCCOc3ccccc3C#N)CC2)cc(=O)n(C)c1=O [Compound 16] | 6% | 14% | 23% | 0% | 0% | 6.7% | 10% | 
5 | CC(=O)c1ccccc1OCCCN1CCN(c2cc(=O)n(C)c(=O)n2C)CC1 [Compound 17, 1,3-dimethyl-6-[4-(3-[2-acetylphenoxy)propyl)piperazin-1-yl]-2,4(1H,3H)-pyrimidinedione] | 28% | 43% | 59% | 3.5% | 8.3% | 13.5% | 17.3% | 
6 | CC(=O)Nc1ccccc1OCCCN1CCN(c2cc(=O)n(C)c(=O)n2C)CC1 [Compound 18] |  | 11% | 22% |  | 6.3% | 12.5% |  | 
7 | CC(C)C(=O)c1ccccc1OCCCN1CCN(c2cc(=O)n(C)c(=O)n2C)CC1 [Compound 25] | 13% | 26% |  | 0% | 0% | 0% | 7.6% | 
8 | Cn1c(N2CCN(CCCOc3ccccc3C(=O)CCc3ccccc3)CC2)cc(=O)n(C)c1=O [Compound 31] | 13% | 16% |  | 0% | 0% | 6.3% | 12.9% | 
9 | Cn1c(N2CCN(CCCOc3ccccc3N=[N+]=[N-])CC2)cc(=O)n(C)c1=O [Compound 36] |  | 17% |  | 0% | 7.1% | 7.1% | 14.3% | 
10 | Cn1c(N2CCN(CCCOc3ccccc3C(=O)C3CCCC3)CC2)cc(=O)n(C)c1=O [Compound 39] |  | 26% | 48% |  |  |  |  | 
11 | Cn1c(N2CCN(CCCOc3ccc(Cl)cc3Cl)CC2)cc(=O)n(C)c1=O [Compound 43] |  | 13% | 18% | 0% | 0% | 7.7% | 19.3% | 
12 | Cn1c(N2CCN(CCCOc3ccc(Cl)cc3S(C)(=O)=O)CC2)cc(=O)n(C)c1=O [Compound 50] | 6% | 15% | 26% | 0% | 5.6% | 5.6% | 11.1% | 
13 | Cn1c(N2CCN(CCCOc3ccc(Cl)cc3C(=O)c3ccccc3)CC2)cc(=O)n(C)c1=O [Compound 51] | 19% | 24% |  | 0% | 6.3% | 6.3% | 12.5% | 11%
14 | Cn1c(N2CCN(CCCOc3ccc(Cl)cc3C(=O)c3ccccn3)CC2)cc(=O)n(C)c1=O [Compound 52] | 9% | 14% | 18% |  |  |  |  | 
15 | Cn1c(N2CCN(CCCOc3ccc(C(=O)c4ccccc4)cc3F)CC2)cc(=O)n(C)c1=O [Compound 58] | 19% | 29% | 36% |  |  |  |  | 
16 | Cn1c(N2CCN(CCOc3ccccc3)CC2)cc(=O)n(C)c1=O [Compound 65, 1,3-dimethyl-6-[4-(2-phenoxyethyl)piperazin-1-yl]-2,4(1H,3H)-pyrimidinedione.hydrochloride] |  | 14% | 17% | 0% | 0% | 0% | 0% | 
17 | Cn1c(N2CCN(CCc3ccccc3)CC2)cc(=O)n(C)c1=O [Compound 88, 1,3-dimethyl-6-[4-(2-phenylethyl)-piperazin-1-yl]-2,4(1H,3H)-pyrimidinedione.hydrochloride] |  | 26% | 49% | 2% | 6% | 11.7% |  | 
18 | Cn1c(N2CCN(CCCc3ccccc3)CC2)cc(=O)n(C)c1=O [Compound 89, 1,3-dimethyl-6-[4-(3-phenylpropyl)piperazin-1-yl]-2,4(1H,3H)-pyrimidinedione.hydrochloride] | 15% | 26% | 31% | 0% | 5.7% | 9.7% | 14% | 
19 | Cn1c(NCCN(CCO)CCCc2ccccc2)cc(=O)n(C)c1=O [Compound 120, 1,3-dimethyl-6-[2-(N-[2-hydroxyethyl]-3-phenylpropylamino)ethylamino]-2,4(1H,3H)-pyrimidinedione.oxalate] | 6% | 14% | 26% |  |  |  |  | 
20 | CCN(CCCc1ccccc1)CCNc1cc(=O)n(C)c(=O)n1C [Compound 121, 1,3-dimethyl-6-[2-(N-ethyl-3-phenylpropylamino)ethylamino]-2,4(1H,3H)-pyrimidinedione.oxalate] | 9% | 14% | 16% |  |  |  |  | 
